Measured values published in US20220079931A1, “ESTROGEN RECEPTOR PROTEIN DEGRADERS” (THE REGENTS OF THE UNIVERSITY OF MICHIGAN, priority 2019, published 2022).

Key:
VHL-ElonginBC complex = target: T1, VHL-ElonginBC complex (Homo sapiens, UniProt P40337); assay: Fluorescence-polarization (FP) competitive binding assay for VHL; details: VHL ligands; VHL-ElonginBC complex and fluorescent probe both 5 nM; read-out: FP Binding affinity IC50
T1 construct: His-TEV (His-tag with TEV protease site) (cleaved yes); made in house; host or cells: E. coli BL21(DE3)
Description: Cloning and Purification of VHL-ElonginBC complex. The DNA sequence of VHL (coding for residues 54-213) was constructed by PCR and inserted into a His-TEV expression vector^58 using ligation-independent cloning. The DNA sequences of Elongin B (encoding residues 1-118) and Elongin C (encoding residues 1-96) were constmcted by PCR and inserted into pCDFDuet 1 using Gibson assembly.^59 BL21(DE3) cells were transformed simultaneously with both plasmids and grown in Terrific Broth at 37° C. until an OD600 of 1.2. The cells were induced overnight with 0.4 mM IPTG at 24° C. Pelleted cells were freeze-thawed then resuspended in 20 mM Tris HCl pH7.0, 200 mM NaCl and 0.1% β-mercaptoethanol (bME) containing protease inhibitors. The cell suspension was lysed by sonication and debris removed via centrifugation. The supernatant was incubated at 4° C. for 1 hr with Ni-NTA (Qiagen) pre-washed in 20 mM Tris-HCl pH 7.0, 200 mM NaCl and 10 mM Imidazole. The protein complex was eluted in 20 mM Tris-HCl pH 7.0, 200 mM NaCl and 300 mM Imidazole, dialyzed into 20 mM Tris-HCl pH 7.0, 150 mM NaCl, and 0.01% bME and incubated with TEV protease overnight at 4° C. The protein sample was reapplied to the Ni-NTA column to remove the His-tag. The flow through containing the VHL complex was diluted to 75 mM NaCl and applied to a HiTrap Q column (GE Healthcare). The sample was eluted with a salt gradient (0.075-1 M NaCl), concentrated and further purified on a Superdex S75 column (GE Healthcare) pre-equilibrated with 20 mM Bis-Tris 7.0, 150 mM NaCl and 1 mM DTT. Samples were aliquoted and stored at −80° C.
Binding Affinities of VHL ligands to VHL. A fluorescence-polarization (FP) competitive assay was established using VHL-ElonginBC complex and a fluorescently tagged probe (SI). The IC50 and Ki values of VHL ligands were determined in competitive binding experiments. Mixtures of 5 μL of compounds in DMSO and 95 μL of preincubated protein/tracer complex solution were added into assay plates which were incubated at rt for 60 min with gentle shaking. Final concentrations of VHL-ElonginBC complex and fluorescent probe were both 5 nM. Negative controls containing protein/probe complex only (equivalent to 0% inhibition) and positive controls containing only free probes (equivalent to 100% inhibition) were included in each assay plate. FP values in millipolarization units (mP) were measured using the Infinite M-1000 plate reader (Tecan U.S., Research Triangle Park, N.C.) in Microfluor 1 96-well, black, round-bottom plates (Thermo Scientific, Waltham, Mass.) at an excitation wavelength of 485 nm and an emission wavelength of 530 nm. IC50 values were determined by nonlinear regression fitting of the competition curves. Ki values of competitive inhibitors were obtained directly by nonlinear regression fitting, based upon the KD values of the probe and concentrations of the protein and probe in the competitive assays. All the FP competitive experiments were performed in duplicate in three independent experiments.

MCF-7 cells = assay: WST-8 cell proliferation assay in MCF-7 cells; assay type: cell-based, human; details: MCF-7 cells, WST-8, 4 days
Description: (§1) Cell Culture. Human breast cancer cell lines MCF-7 (ATCC® HTB-22™) and T47D (ATCC® HTB-133™) were purchased from the American Type Culture Collection (ATCC), Manassas, Va., and maintained and cultured in Dulbecco's Modified Eagle's medium (DMEM) containing 10% fetal bovine serum, 1 unit/ml of penicillin and 1 μg/ml of streptomycin. Cells with 3-8 passages after purchase were used in experiments as indicated.
Cell Growth Assay. Cells were seeded at 1500/well in 96 well plates overnight. One day after seeding, they were treated with indicated doses of compounds. The growth of the cells was evaluated by colorimetric WST-8 assay 4 days after the compound treatment following the instructions of the manufacturer, Cayman Chemical, Ann Arbor, Mich.
Fulvestrant achieves an Imax value of 43.8%. […] RAD1901, a previously reported SERD molecule^18, achieves an Imax value of 25.7%.

ERα [1] = target: T2, ERα (Homo sapiens, UniProt P03372); assay: Mechanism of ER degradation: pretreatment with VHL ligand, ER ligand or proteasome inhibitor, Western blotting in MCF-7 cells; assay type: cell-based; parameters: host or cells: MCF-7; details: 1 μM, alone
T2 sequence (P03372 1-595): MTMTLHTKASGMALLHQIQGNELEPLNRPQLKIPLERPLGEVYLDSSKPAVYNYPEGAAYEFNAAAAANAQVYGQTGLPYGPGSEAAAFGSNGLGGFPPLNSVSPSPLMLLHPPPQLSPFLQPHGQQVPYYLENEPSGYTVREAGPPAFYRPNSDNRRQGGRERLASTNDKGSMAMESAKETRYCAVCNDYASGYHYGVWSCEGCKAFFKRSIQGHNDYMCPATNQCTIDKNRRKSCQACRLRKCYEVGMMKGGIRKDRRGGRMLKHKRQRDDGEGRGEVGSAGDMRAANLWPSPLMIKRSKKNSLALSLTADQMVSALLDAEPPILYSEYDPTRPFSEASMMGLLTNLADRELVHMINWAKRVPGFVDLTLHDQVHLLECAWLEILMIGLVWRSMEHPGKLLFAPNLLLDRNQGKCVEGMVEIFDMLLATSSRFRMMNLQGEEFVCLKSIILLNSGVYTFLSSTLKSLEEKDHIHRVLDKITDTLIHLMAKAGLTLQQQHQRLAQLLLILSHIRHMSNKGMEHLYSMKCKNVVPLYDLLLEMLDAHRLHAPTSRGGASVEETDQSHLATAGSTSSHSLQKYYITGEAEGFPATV
Description: (§2) Then whole-cell lysates were analyzed by Western blotting.
as §2
Western Blot Analysis. […] Cells treated with indicated compounds were lysed in Radioimmunoprecipitation Assay Protein Lysis and Extraction Buffer (25 mmol/L Tris.HCl, pH 7.6, 150 mmol/L NaCl, 1% Nonidet P-40, 1% sodium deoxycholate, and 0.1% sodium dodecyl sulfate) containing proteinase inhibitor cocktail (Roche Diagnostics, Mannheim, Germany). After determination of protein concentration by BCA assay (Fisher Scientific, Pittsburgh, Pa.), equal amounts of total protein were electrophoresed through 10% SDS-polyacrylamide gels. The separated protein bands were transferred onto PVDF membranes (GE Healthcare Life Sciences, Marlborough, Mass.) and blotted against different antibodies, as indicated. The human estrogen receptor a antibodies (AB16460) were purchased from Abeam, Inc., Cambridge, Mass. The membranes were reblotted with horseradish peroxidase-conjugated anti-glyceraldehyde-3-phosphate dehydrogenase antibody (G9295) from Sigma-Aldrich Corporation, St. Louis, Mo. The blots were scanned and the band intensities were quantified using GelQuant.NET software as described in biochemlabsolutions.com. The relative mean intensity of target proteins was expressed after normalization to the intensity of glyceraldehyde-3-phosphate dehydrogenase bands from individual repeats.

[2] = background statement; cited from earlier work
[3] = background statement; cited from earlier work; remark: listed apart in the source
ERα [4] = target: T2, ERα; assay: ER degradation by Western blotting in MCF-7 cells; assay type: cell-based; parameters: host or cells: MCF-7; details: 30 nM
Description: FIG. 1 is an image showing the Western blotting analysis of ER protein in MCF-7 cells treated with Compounds of the Disclosure and control compounds. Cells were treated with different compounds for 4 h and whole cell lysates were then analyzed by Western blotting to examine the level of ER protein. GADPH protein was used for the loading control. The numbers below the panel represent the ERα/GADPH ratio normalized with the DMSO control at 100.
FIG. 2 is an image showing the Western blotting analysis of ER protein in the MCF-7 cells treated with indicated compounds at 1 nM, 10 nM and 100 nM. MCF-7 cells were treated with different compounds for 4 h and whole cell lysates were analyzed by Western blotting to examine the level of ER protein. GADPH protein was used for the loading control. The numbers below the panel represent the ERα/GADPH ratio normalized with the DMSO control at 100.
FIG. 7 is an image showing the ERα degradation dose-response Western blotting for compound 32 at 4 h in MCF-7 cells.
FIG. 9 is an image showing the time course of ERα degradation by Western blotting by compound 32 (30 nM) and fulvestrant (30 nM) in the MCF-7 cells.
as §1
Western Blot Analysis. Western blot analysis was performed essentially as described previously (Hu et al, 2015, PMID: 26358219). Cells treated with indicated compounds were lysed in Radioimmunoprecipitation Assay Protein Lysis and Extraction Buffer (25 mmol/L Tris.HCl, pH 7.6, 150 mmol/L NaCl, 1% Nonidet P-40, 1% sodium deoxycholate, and 0.1% sodium dodecyl sulfate) containing proteinase inhibitor cocktail (Roche Diagnostics, Mannheim, Germany). After determination of protein concentration by BCA assay (Fisher Scientific, Pittsburgh, Pa.), equal amounts of total protein were electrophoresed through 10% SDS-polyacrylamide gels. The separated protein bands were transferred onto PVDF membranes (GE Healthcare Life Sciences, Marlborough, Mass.) and blotted against different antibodies, as indicated. The human estrogen receptor a antibodies (AB16460) were purchased from Abeam, Inc., Cambridge, Mass. The membranes were reblotted with horseradish peroxidase-conjugated anti-glyceraldehyde-3-phosphate dehydrogenase antibody (G9295) from Sigma-Aldrich Corporation, St. Louis, Mo. The blots were scanned and the band intensities were quantified using GelQuant.NET software as described in biochemlabsolutions.com. The relative mean intensity of target proteins was expressed after normalization to the intensity of glyceraldehyde-3-phosphate dehydrogenase bands from individual repeats.

| Compound | IC50 (VHL-ElonginBC complex) [µM] | maximum inhibition (Imax) (MCF-7 cells) [%] | also measured |
| --- | --- | --- | --- |
| CC(=O)N[C@H](C(=O)N1C[C@H](O)C[C@H]1C(=O)N[C@@H](C)c1ccc(C(C)C)cc1)C(C)(C)C [47a, (2S,4R)-1-((S)-2-acetamido-3,3-dimethylbutanoyl)-4-hydroxy-N—((S)-1-(4-isopropylphenyl)ethyl)pyrrolidine-2-carboxamide] | 41 ± 6.67 |  |  |
| CC(=O)N[C@H](C(=O)N1C[C@H](O)C[C@H]1C(=O)N[C@@H](C)c1ccc(C(C)(C)C)cc1)C(C)(C)C [48a, (2S,4R)-1-((S)-2-acetamido-3,3-dimethylbutanoyl)-N—((S)-1-(4-(tert-butyl)phenyl)ethyl)-4-hydroxypyrrolidine-2-carboxamide] | 58.9 ± 5.26 |  |  |
| CCNCCc1ccc(CN(CC)c2cc(OC)ccc2[C@@H]2CCc3cc(O)ccc3C2)cc1 [RAD1901] |  | 25.7 |  |
| CC(C)C[C@H](NC(=O)[C@H](CCc1ccccc1)NC(=O)CN1CCOCC1)C(=O)N[C@@H](Cc1ccccc1)C(=O)N[C@@H](CC(C)C)C(=O)[C@@]1(C)CO1 [carfilzomib, reference compound] |  |  | effect alone on ER protein levels (ERα [1]): no effect |
| CC(=O)N[C@H](C(=O)N1C[C@H](O)C[C@H]1C(=O)N[C@@H](C)c1ccc(-c2scnc2C)cc1)C(C)(C)C [compound 11, (2S,4R)-1-((S)-2-Acetamido-3,3-dimethylbutanoyl)-4-hydroxy-N—((S)-1-(4-(4-methylthiazol-5-yl)phenyl)ethyl)pyrrolidine-2-carboxamide, reference compound] | 0.196 ± 0.006 |  |  |
| C[C@]12CC[C@@H]3c4ccc(O)cc4C[C@@H](CCCCCCCCC[S+]([O-])CCCC(F)(F)C(F)(F)F)[C@H]3[C@@H]1CC[C@@H]2O (some centres unmarked) [fulvestrant] |  | 43.8 | solubility [2]: poor solubility; oral bioavailability [3]: not orally bioavailable; reduction of ER protein level at 1 h (ERα [4]; 1 h treatment): only a modest effect; maximum ER degradation in time course (ERα [4]; after a 24 h treatment): approximately 90% |
| O=C(c1ccc(OCCN2CCCCC2)cc1)c1c(-c2ccc(O)cc2)sc2cc(O)ccc12 [raloxifene] |  | 34.0 |  |
